Values of other authors as cited in patent US20030027808A1, “Farnesyl protein transferase inhibitor combinations with platinum compounds” (priority 2000, published 2003).

System: colon cancer (LoVo)
Details: in combination with cisplatin; in vitro LoVo colon cancer model; reported at 90th AACR Annual Meeting, Apr. 10-14, 1999

## Cn1cncc1C(N)(c1ccc(Cl)cc1)c1ccc2c(c1)c(-c1cccc(Cl)c1)cc(=O)n2C (single isomer, unassigned; (+)) [(+)-6-[amino(4-chlorophenyl)(1-methyl-1H-imidazol-5-yl)methyl]-4-(3-chlorophenyl)-1-methyl-2(1H)-quinolinone]
  anti-tumor effect of the combination: additive anti-tumor effect
